Measurements: patent publication US20150343016A1, “CHEMICAL ENTITIES AND THERAPEUTIC USES THEREOF” (The Regents of the University of Colorado, a body corporate, priority 2010, published 2015)

How the values were obtained:
[1] = system: grp (Chk1) mutant Drosophila larvae; assay: Drosophila larval survival to adulthood (eclosion), drug with and without IR, grp (Chk1) mutants; type: in vivo; settings: for manner in which drug and radiation act together: grp (Chk1) mutants
Description: To validate the identification of Bouvardin from the primary screen, the effect of this molecule on Drosophila larvae alone or in combination with radiation were assessed (FIG. 12). The screen was performed using irradiated mutant larvae. Hits from the screen were defined as those that reduced the survival of IRRADIATED larvae compared to the population of drugs being tested (approximately 80 molecules at a time) or compared to DMSO controls in the re-test. A hit could therefore act by enhancing the effect of radiation, or by simply killing larvae as a single agent, or both. To distinguish among these possibilities, hits from the screen were re-tested against larvae with and without irradiation.
In FIG. 12 survival after each treatment is expressed as the fraction of animals that emerged (“eclosed”) as viable adults. The averages have been normalized to the average fraction eclosed in no IR/drug control for the respective genotype. Error bars extend beyond fractional survival of 1.0 simply because of normalization. (A-C) Fraction eclosed for WT and grp and p53 mutants at 16 uM of Bouvardin, with and without IR. The data are averages of 3-8 biological replicates per sample. Dotted line on each graph denotes expected ‘fraction eclosed’ if drug and IR act additively. IR doses were 4000R for WT and grp and 3000R for p53 because of the higher radiation sensitivity of the latter. (D) Fraction eclosed for Minute mutants and yw controls after exposure to 0 (−IR) and 2000R (+IR) of X-rays. N ranged from 86-207 per genotype per treatment, in 3 biological replicates per sample. *=p<0.01; **=<0.001. 100R=1Gy. Error bar=1 standard deviation.
The activity of Bouvardin in Drosophila alone or in combination with ionizing radiation (IR) was assessed. Drug concentrations of 10-20 μM were used to approximate the conditions of the original screen. Third instar larvae were irradiated and cultured on medium containing drug. The survival of larvae was quantified 10 days later by measuring the rate of eclosion into adulthood. […]

[2] = system: FaDu cells; assay: MTT assay, Bouvardin with ionizing radiation, FaDu (same-day treatment); type: cell-based, human
Description: “Combination Index” computation. Combination Indices were calculated using CalcuSyn software (Biosoft), which uses the method of Chou and Talalay. This method first computes drug-induced effect using the Hill Equation: where E is the measured effect; C is the drug concentration; Emax is the full range of drug effect, usually at or near 100%; IC50 is the drug concentration producing the median effect of 50%; and n is the curve shape parameter describing the steepness of the concentration-effect relationship. The Chou and Talalay method then linearizes the Hill Equation by logarithmic transformation as: where fu is the fraction of cells left unaffected after drug exposure, fa is the fraction of cells affected by the exposure, C is the drug concentration used, Cm is the concentration to achieve the median effect, and n is the curve shape parameter. Cm and n are equivalent to IC50 and n, respectively, in the Hill Equation. The values of n (obtained from the slope), nlog(Cm) (obtained from the absolute value of the intercept), and, therefore, Cm are obtained by plotting log(fu−1−1) versus log(C). These numbers are then used to compute the Combination Index (CI) according to the formula: CI=(D)1/(Dx)1+(D)2/(Dx)2 (26). (Dx)1 and (Dx)2 are the doses required to achieve a given effect level for each treatment, i.e. a specified value of Fraction Affected or Fa. (D)1 and (D)2 are the doses of each treatment in a given combination which gives the same Fa.
For FIG. 19 MTT assays were used to determine the effect of Bouvardin (concentrations in uM) in combination with ionizing radiation (in Gy). The data from same-day treatment of IR and Bouvardin are shown, for comparison with taxol-Bouvardin combination that were also applied on the same day. In general, CI values were lower for FaDu cells than for Det562 cells in two separate experiments (only one set is shown). On Det562 cells, CI values were about 1 for most combinations. CI value for Det562 cells at 0.001 uM/1Gy and at >0.06 uM are not included in the graph because the values are >10 and would have made smaller values harder to see. On FaDu cells, CI values were below 1 at concentrations of 0.03 or lower, were about 1 for 0.06 uM drug, and were over 1 at higher concentrations.
The growth inhibitory effects of Bouvardin with ionizing radiation (IR) were evaluated using a modified tetrazolium salt (MTT) assay. In the MTT assay, 1,000 to 2,000 viable cells were plated in 100 uL of growth medium in 96-well plates (Corning, Ithaca, N.Y.). Following an overnight incubation, drug was added in varying concentrations and the plates were irradiated on the same day (co-treatment) or 24 hr later (pre-treatment) and incubated for 6 to 7 days. The tetrazolium salt was added at a concentration of 0.4 mg/mL to each well following the 6- to 7-day treatment. The plates were incubated with the salt for 4 hours at 37° C. At 4 hours, the medium was aspirated off, leaving the dark blue formazan product at the bottom of the wells. The reduced MTT product was solubilized by adding […] of 0.2 N HCl in 75% isopropanol, 23% MilliQ water to each well. Thorough mixing was done using a Titertek multichannel pipetman. The absorbency of each well was measured using an automated plate reader (Molecular Devices, Sunnyvale, Calif.). All experiments were done in triplicate.

COc1ccc(C[C@H]2C(=O)N[C@H](C)C(=O)N(C)[C@@H]3C(=O)N(C)[C@@H](Cc4ccc(O)c(c4)Oc4ccc(cc4)[C@H]3O)C(=O)N[C@@H](C)C(=O)N[C@H](C)C(=O)N2C)cc1 (stereo in doubt) [Bouvardin, bouvardin]
manner in which drug and radiation act together [1]: synergistic manner
manner in which drug and radiation act together ([1]; listed as bouvardin): appear to synergize
effect on the killing effect of radiation (+IR versus +both) ([1]; grp mutants, drug 10-20 μM): increased the killing effect of radiation in a statistically significant manner
Bouvardin concentrations at which synergy was seen when combined with radiation ([2]; Det562 and FaDu (FIG. 19)): lower than 0.06 μM
interaction of Bouvardin with IR ([2]; FaDu): a wide range of effects, synergistic to antagonistic
CI values, Bouvardin with IR ([2]; FaDu, 0.06 uM drug): about 1
CI values, Bouvardin with IR ([2]; FaDu, concentrations higher than 0.06 uM): over 1
CI values, Bouvardin with IR ([2]; FaDu, concentrations of 0.03 or lower): below 1
